Measured values as given in PubChem BioAssay AID1918993 (Molecular Pharmacology Branch, DTP, NCI, 2023).
Several values for one entry are separate records, joined by “and”; a condition that tells them apart may be missing. Equal values may be shown once.

Test system: 233499-124-R-J3-PDC complex spheroid growth
Assay: Anticancer human tumor 233499-124-R-J3-PDC patient-derived colon adenocarcinoma cell line growth inhibition [AhR]
Conditions: for viability, T/C: stronger effect = lower value
Summary of the method: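 Complex tumor spheroids co-cultured with HUVEC and human MSC stroma; AhR antagonists tested in combination with standard-of-care and investigational agents. Top concentration at or near clinical Cmax (else 10 microM), half-log dilutions; growth expressed as percent test/control.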

[1] = curve of first compound, second compound 0.1 µM
[2] = curve of first compound, second compound 0.316 µM
[3] = curve of first compound, second compound 1 µM
[4] = curve of first compound, second compound 3.16 µM
[5] = curve of first compound, second compound 10 µM
[6] = second compound 0.1 µM, first compound 0.0316 µM
[7] = second compound 0.1 µM, first compound 0.1 µM
[8] = second compound 0.316 µM, first compound 0.0316 µM
[9] = second compound 0.316 µM, first compound 0.1 µM
[10] = second compound 1 µM, first compound 0.0316 µM
[11] = second compound 1 µM, first compound 0.1 µM
[12] = second compound 3.16 µM, first compound 0.0316 µM
[13] = second compound 3.16 µM, first compound 0.1 µM
[14] = second compound 10 µM, first compound 0.0316 µM
[15] = second compound 10 µM, first compound 0.1 µM
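Further: spheroids exposed to agents for seven days before reading.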

With `CC[C@@]1(O)C(=O)OCc2c1cc1n(c2=O)Cc2cc3c(CN(C)C)c(O)ccc3nc2-1` + Cc1cncc(-c2nc(NCCc3c[nH]c4ccccc34)c3ncn(C(C)C)c3n2)c1 as the molecule, how does the IC50 [1] read?
Its IC50 is greater than 100 nM.

And the IC50 [2]?
The IC50 was greater than 100 nM.

What about the IC50 [3] of the same molecule?
Its IC50 is greater than 100 nM.

What about the IC50 [4] of the same molecule?
Its IC50 is greater than 100 nM.

What about the IC50 [5] of the same molecule?
The IC50 was less than 0.316 nM.

And the viability, T/C (second compound 0.1 µM, first compound 0.000316 µM)?
The viability, T/C was 101%.

What about the viability, T/C (second compound 0.1 µM, first compound 0.001 µM) of the same molecule?
Its viability, T/C is 94.2%.

What about the viability, T/C (second compound 0.1 µM, first compound 0.00316 µM) of the same molecule?
The viability, T/C was 92.1%.

What about the viability, T/C (second compound 0.1 µM, first compound 0.01 µM) of the same molecule?
Its viability, T/C is 94.6%.

What about the viability, T/C [6] of the same molecule?
The viability, T/C was 97.6%.

And the viability, T/C [7]?
Its viability, T/C is 92.6%.

What about the viability, T/C (second compound 0.316 µM, first compound 0.000316 µM) of the same molecule?
Its viability, T/C is 92.1%.

And the viability, T/C (second compound 0.316 µM, first compound 0.001 µM)?
Its viability, T/C is 82.3%.

What about the viability, T/C (second compound 0.316 µM, first compound 0.00316 µM) of the same molecule?
Its viability, T/C is 84.4%.

What about the viability, T/C (second compound 0.316 µM, first compound 0.01 µM) of the same molecule?
The viability, T/C was 78.5%.

And the viability, T/C [8]?
The viability, T/C was 101%.

What about the viability, T/C [9] of the same molecule?
The viability, T/C was 69.6%.

What about the viability, T/C (second compound 1 µM, first compound 0.000316 µM) of the same molecule?
Its viability, T/C is 84.1%.

And the viability, T/C (second compound 1 µM, first compound 0.001 µM)?
The viability, T/C was 76%.

What about the viability, T/C (second compound 1 µM, first compound 0.00316 µM) of the same molecule?
The viability, T/C was 77.8%.

What about the viability, T/C (second compound 1 µM, first compound 0.01 µM) of the same molecule?
The viability, T/C was 70.3%.

And the viability, T/C [10]?
The viability, T/C was 85.2%.

And the viability, T/C [11]?
The viability, T/C was 68%.

What about the viability, T/C (second compound 3.16 µM, first compound 0.000316 µM) of the same molecule?
Its viability, T/C is 87.8%.

What about the viability, T/C (second compound 3.16 µM, first compound 0.001 µM) of the same molecule?
The viability, T/C was 71.5%.

And the viability, T/C (second compound 3.16 µM, first compound 0.00316 µM)?
The viability, T/C was 91%.

What about the viability, T/C (second compound 3.16 µM, first compound 0.01 µM) of the same molecule?
Its viability, T/C is 88.6%.

What about the viability, T/C [12] of the same molecule?
Its viability, T/C is 83.3%.

What about the viability, T/C [13] of the same molecule?
Its viability, T/C is 63.2%.

And the viability, T/C (second compound 10 µM, first compound 0.000316 µM)?
The viability, T/C was 8.54%.

What about the viability, T/C (second compound 10 µM, first compound 0.001 µM) of the same molecule?
The viability, T/C was 8.37%.

What about the viability, T/C (second compound 10 µM, first compound 0.00316 µM) of the same molecule?
Its viability, T/C is 34.9%.

And the viability, T/C (second compound 10 µM, first compound 0.01 µM)?
The viability, T/C was 24%.

What about the viability, T/C [14] of the same molecule?
Its viability, T/C is 12.9%.

And the viability, T/C [15]?
The viability, T/C was 16.9%.

With `COc1ccc([C@@H](O)c2cc(-c3ncnc4cc(N5CCOCC5)ccc34)c(F)cc2Cl)nn1` as the molecule, how does the viability, T/C (compound 0.0316 µM) read?
Its viability, T/C is 99.4% and 94% and 95.8%.

And the viability, T/C (compound 0.1 µM)?
Its viability, T/C is 95.7% and 89% and 102%.

What about the viability, T/C (compound 0.316 µM) of the same molecule?
Its viability, T/C is 94.3% and 102% and 98.5%.

What about the viability, T/C (compound 1 µM) of the same molecule?
Its viability, T/C is 99.9% and 87% and 104%.

What about the viability, T/C (compound 3.16 µM) of the same molecule?
Its viability, T/C is 92.7% and 89.7% and 82.3%.

What about the viability, T/C (compound 10 µM) of the same molecule?
The viability, T/C was 98.3% and 91% and 81.9%.

What about the IC50 (curve of compound) of the same molecule?
The IC50 was greater than 10000 nM.

With `COc1cc(C2c3cc4c(cc3C(OC3OC5COC(C)OC5C(O)C3O)C3COC(=O)C23)OCO4)cc(OC)c1O` (stereo not given) as the molecule, how does the viability, T/C (compound 0.0316 µM) read?
The viability, T/C was 101% and 87.7% and 99.6%.

And the viability, T/C (compound 0.1 µM)?
Its viability, T/C is 92.9% and 95.8% and 106%.

And the viability, T/C (compound 0.316 µM)?
The viability, T/C was 98.6% and 95.4% and 95.7%.

And the viability, T/C (compound 1 µM)?
Its viability, T/C is 109% and 93.1% and 94.7%.

What about the viability, T/C (compound 3.16 µM) of the same molecule?
The viability, T/C was 91.3% and 92.4% and 110%.

And the viability, T/C (compound 10 µM)?
The viability, T/C was 93.3% and 78.6% and 85.6%.

What about the IC50 (curve of compound) of the same molecule?
The IC50 was greater than 10000 nM.

`NS(=O)(=O)OCC1CC(n2ccc3c(NC4CCc5ccccc54)ncnc32)CC1O` (stereo not given) + Cc1ccccc1N=Nc1ccc(NC(=O)c2ccnn2C)c(C)c1 was tested. Which IC50 [1] did it give?
The IC50 was 409 nM.

And the IC50 [2]?
The IC50 was 442 nM.

What about the IC50 [3] of the same molecule?
The IC50 was 395 nM.

What about the IC50 [4] of the same molecule?
The IC50 was 475 nM.

What about the IC50 [5] of the same molecule?
Its IC50 is 637 nM.

And the viability, T/C [6]?
Its viability, T/C is 110%.

And the viability, T/C [7]?
The viability, T/C was 113%.

And the viability, T/C (second compound 0.1 µM, first compound 0.316 µM)?
Its viability, T/C is 61.3%.

And the viability, T/C (second compound 0.1 µM, first compound 1 µM)?
Its viability, T/C is 10.8%.

And the viability, T/C (second compound 0.1 µM, first compound 3.16 µM)?
Its viability, T/C is 2.55%.

What about the viability, T/C (second compound 0.1 µM, first compound 10 µM) of the same molecule?
Its viability, T/C is 3.77%.

And the viability, T/C [8]?
The viability, T/C was 125%.

What about the viability, T/C [9] of the same molecule?
Its viability, T/C is 96.6%.

And the viability, T/C (second compound 0.316 µM, first compound 0.316 µM)?
The viability, T/C was 68.1%.

What about the viability, T/C (second compound 0.316 µM, first compound 1 µM) of the same molecule?
The viability, T/C was 16.6%.

What about the viability, T/C (second compound 0.316 µM, first compound 3.16 µM) of the same molecule?
The viability, T/C was 3.6%.

And the viability, T/C (second compound 0.316 µM, first compound 10 µM)?
The viability, T/C was 2.37%.

What about the viability, T/C [10] of the same molecule?
Its viability, T/C is 116%.

What about the viability, T/C [11] of the same molecule?
Its viability, T/C is 103%.

And the viability, T/C (second compound 1 µM, first compound 0.316 µM)?
The viability, T/C was 58.2%.

And the viability, T/C (second compound 1 µM, first compound 1 µM)?
Its viability, T/C is 15.8%.

And the viability, T/C (second compound 1 µM, first compound 3.16 µM)?
Its viability, T/C is 3.88%.

And the viability, T/C (second compound 1 µM, first compound 10 µM)?
The viability, T/C was 3.13%.

What about the viability, T/C [12] of the same molecule?
Its viability, T/C is 115%.

And the viability, T/C [13]?
Its viability, T/C is 97.5%.

What about the viability, T/C (second compound 3.16 µM, first compound 0.316 µM) of the same molecule?
Its viability, T/C is 70.8%.

What about the viability, T/C (second compound 3.16 µM, first compound 1 µM) of the same molecule?
The viability, T/C was 14.6%.

What about the viability, T/C (second compound 3.16 µM, first compound 3.16 µM) of the same molecule?
The viability, T/C was 2.81%.

What about the viability, T/C (second compound 3.16 µM, first compound 10 µM) of the same molecule?
The viability, T/C was 3.25%.

What about the viability, T/C [14] of the same molecule?
The viability, T/C was 109%.

And the viability, T/C [15]?
The viability, T/C was 108%.

And the viability, T/C (second compound 10 µM, first compound 0.316 µM)?
The viability, T/C was 83.6%.

And the viability, T/C (second compound 10 µM, first compound 1 µM)?
The viability, T/C was 28.6%.

What about the viability, T/C (second compound 10 µM, first compound 3.16 µM) of the same molecule?
Its viability, T/C is 4.02%.

And the viability, T/C (second compound 10 µM, first compound 10 µM)?
The viability, T/C was 3.01%.

Which viability, T/C (compound 0.0316 µM) does the source give for `Nc1ccn(C2OC(CO)C(O)C2(F)F)c(=O)n1` (stereo not given) here?
Its viability, T/C is 108% and 76.6% and 99.2%.

What about the viability, T/C (compound 0.1 µM) of the same molecule?
The viability, T/C was 91.1% and 89.1% and 80.1%.

And the viability, T/C (compound 0.316 µM)?
Its viability, T/C is 75.9% and 48.8% and 61.6%.

And the viability, T/C (compound 1 µM)?
The viability, T/C was 51.4% and 43.7% and 46.9%.

What about the viability, T/C (compound 3.16 µM) of the same molecule?
The viability, T/C was 45.5% and 50.5% and 62.4%.

What about the viability, T/C (compound 10 µM) of the same molecule?
The viability, T/C was 54.1% and 54.5% and 59.6%.
